pEC50: −log10 of the molar value.
Target: T1, Corticotropin-releasing factor-binding protein (Homo sapiens, UniProt P24387)
T1 sequence (P24387 whole entry): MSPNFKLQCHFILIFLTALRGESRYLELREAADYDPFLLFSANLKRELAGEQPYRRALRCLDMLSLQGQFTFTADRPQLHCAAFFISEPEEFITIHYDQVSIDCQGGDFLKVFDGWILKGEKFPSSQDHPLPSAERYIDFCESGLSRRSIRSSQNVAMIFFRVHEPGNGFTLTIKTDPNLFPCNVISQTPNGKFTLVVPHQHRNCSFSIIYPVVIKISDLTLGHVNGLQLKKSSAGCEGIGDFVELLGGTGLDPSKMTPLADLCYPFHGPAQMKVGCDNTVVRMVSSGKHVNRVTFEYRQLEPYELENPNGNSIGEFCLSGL
Experiment: activators of CRF receptor 2 with binding protein – uHTS hits, confirmation (AID 602473)

Row | pEC50 | Compound
1 | < 4.28 | CC1=NC(=O)NC(c2cccc3ccccc23)C1C(=O)OC(C)(C)C (stereo not drawn) [SMR000543036]
2 | 5.30 | COc1cccc(C(=O)Cc2nc3ccc(C(=O)NCCc4ccc(Cl)cc4)cc3[nH]c2=O)c1
3 | 5.00 | COc1ccc(-c2ccc(C3c4c(n[nH]c4C)OC(=N)C3C#N)o2)cc1 (stereo not drawn) [6-amino-4-[5-(4-methoxyphenyl)-2-furanyl]-3-methyl-2,4-dihydropyrano[2,3-c]pyrazole-5-carbonitrile]
4 | < 4.28 | Cc1c(N=C2C(=O)N(c3ccccc3Cl)C(=O)C2Cl)c(=O)n(-c2ccccc2)n1C (stereo not drawn)
5 | < 4.28 | CC1(C)CC(=O)C(=CNc2ccc(C(=O)c3ccccc3)cc2NC=C2C(=O)CC(C)(C)CC2=O)C(=O)C1 [MLS000724193]
6 | < 4.28 | CN(CCOc1ccc(Cc2sc(=O)[nH]c2O)cc1)c1ccccn1
7 | 5.28 | COc1ccccc1-n1c(O)c2n(-c3ccc(C)cc3)[nH]c(C(=O)c3ccccc3)c-2c1=O
8 | < 4.28 | Cc1ccc(C)c2sc(NC(=O)c3ccc(-n4c(O)ccc4O)cc3)nc12 [N-(4,7-dimethyl-1,3-benzothiazol-2-yl)-4-(2,5-dioxopyrrolidin-1-yl)benzamide]
9 | < 4.28 | Cn1c(SCC(=O)N/N=C/C2C=C([N+](=O)[O-])C=CC2=O)nnc1-c1ccccc1 (stereo not drawn) [MLS000777077]
10 | < 4.28 | N#CC(C(=O)COC(=O)c1ccccc1O)c1nc2ccccc2s1 (stereo not drawn) [[(3Z)-3-(3H-1,3-benzothiazol-2-ylidene)-3-cyano-2-oxidanylidene-propyl] 2-oxidanylbenzoate]
11 | < 4.28 | N#CC(C(=O)COc1ccc(Cl)cc1)c1nc2ccccc2s1 (stereo not drawn)
12 | < 4.28 | COc1cc2c(cc1OC)C(CC(=O)c1ccc(OC)c([N+](=O)[O-])c1)=NCC2
13 | < 4.28 | Cc1ccc2nc(N3C(=O)C(=O)C(C(=O)c4ccc(C)o4)C3c3cccc(O)c3)sc2c1 (stereo not drawn) [4-hydroxy-2-(3-hydroxyphenyl)-1-(6-methyl-1,3-benzothiazol-2-yl)-3-(5-methylfuran-2-carbonyl)-2H-pyrrol-5-one]
14 | < 4.28 | Oc1ccc(CN=Nc2nc(N3CCCCCC3)nc(N3CCCCCC3)n2)c(O)c1 [2,4-dihydroxybenzaldehyde (4,6-diazepan-1-yl-1,3,5-triazin-2-yl)hydrazone]
15 | < 4.28 | CCc1ccccc1-n1c(O)c2c(c1O)CC(C)=C(C)C2 [SMR000104383]
16 | 5.50 | N#CC(C(=O)Cc1cccc2ccccc12)c1nc2ccccc2s1 (stereo not drawn) [(2Z)-2-(3H-1,3-benzothiazol-2-ylidene)-4-naphthalen-1-yl-3-oxobutanenitrile]
17 | 4.84 | O=C(c1ccccc1)c1[nH]n(-c2ccccc2)c2c(O)n(-c3ccccc3)c(=O)c1-2 [3-benzoyl-1,5-diphenyl-3a,6a-dihydropyrrolo[3,4-c]pyrazole-4,6-dione]
18 | < 4.28 | CCOC(=O)C1C(CCc2ccccc2)=NC(=O)NC1c1cccc([N+](=O)[O-])c1 (stereo not drawn) [4-(3-nitrophenyl)-2-oxo-6-(2-phenylethyl)-3,4-dihydro-1H-pyrimidine-5-carboxylic acid ethyl ester]
19 | < 4.28 | COc1cc(C2c3c(-c4ccccn4)n[nH]c3OC(=N)C2C#N)cc(OC)c1OC (stereo not drawn)
20 | < 4.28 | Cc1ccc(S(=O)(=O)N(CC(=O)NNC2=c3ccccc3=NC2=O)c2ccc(C)c(C)c2)cc1 [SMR000207608]
21 | < 4.28 | O=C(Nn1c(O)csc1=S)c1cccnc1 [MLS000780148]
22 | < 4.28 | Cc1c(Cl)ccc2c1NC(=O)C21NC(CCC(N)=O)c2c1c(O)n(-c1ccc(Cl)cc1)c2O (stereo not drawn) [MLS000083515]

Row | pEC50 | Compound
23 | < 4.28 | C=CCOC(=O)C1C(C)=NC2(O)c3ccccc3C(=O)C12O (stereo not drawn) [MLS000068305]
24 | < 4.28 | COC(=O)C1=C(C)NC(=O)C1=CNc1ccc(Oc2ccccc2)cc1
25 | < 4.28 | O=NCc1ccc(Oc2ccc(F)cc2)c([N+](=O)[O-])c1 [N-[[4-(4-fluorophenoxy)-3-nitrophenyl]methylidene]hydroxylamine]
26 | < 4.28 | C=C1C(c2ccc(Cl)cc2)=[N+](O)C(c2ccccc2)=CN1[O-] [2-(4-chlorophenyl)-3-methyl-4-oxido-6-phenylpyrazin-1-ium 1-oxide]
27 | < 4.28 | N#CCSc1nnc(CNc2ccc(F)cc2)o1 [({5-[(4-fluoroanilino)methyl]-1,3,4-oxadiazol-2-yl}sulfanyl)acetonitrile]
28 | < 4.28 | CCCC(NCC(=O)O)=C1C(=O)CC(C)(C)C(C(=O)OC)C1=O (stereo not drawn) [MLS000108316]
29 | < 4.28 | O=CC(C=Nc1ccccn1)c1nc2cc(Cl)ccc2o1 (stereo not drawn) [(Z)-2-(5-chloranyl-1,3-benzoxazol-2-yl)-3-(pyridin-2-ylamino)prop-2-enal]
30 | < 4.28 | N#CC(C1=NCCC1)c1nc2ccccc2c(=O)[nH]1 (stereo not drawn) [(2Z)-2-(4-oxo-1H-quinazolin-2-yl)-2-(2-pyrrolidinylidene)acetonitrile]
31 | 4.99 | Cc1[nH]c2ccccc2c1/C=C1\N=C(c2ccc(C(F)(F)F)cc2)OC1=O [SMR000152363]
32 | 5.32 | C=CCSc1nnc(C)c(CC=Nc2ccc(Cl)cc2)n1 [4-chloro-N-[(E)-2-(6-methyl-3-prop-2-enylsulfanyl-1,2,4-triazin-5-yl)ethenyl]aniline]
33 | < 4.28 | Cc1noc(NS(=O)(=O)c2ccc(N=CCC(=O)c3cccc4ccccc34)cc2)c1C [N-(3,4-dimethyl-1,2-oxazol-5-yl)-4-[[(Z)-3-naphthalen-1-yl-3-oxidanylidene-prop-1-enyl]amino]benzenesulfonamide]
34 | < 4.28 | COc1ccccc1C1C(C(=O)c2sc(C)nc2C)C(=O)C(=O)N1CCN1CCOCC1 (stereo not drawn) [3-(2,4-dimethyl-1,3-thiazole-5-carbonyl)-4-hydroxy-2-(2-methoxyphenyl)-1-(2-morpholin-4-ylethyl)-2H-pyrrol-5-one]
35 | 5.51 | CCCCCCc1cc2cc(C(=O)NC)c(N)oc-2cc1=O [2-azanyl-6-hexyl-N-methyl-7-oxidanylidene-chromene-3-carboxamide]
36 | < 4.28 | Oc1nc(N=NCc2ccc(F)cc2)sc1-c1ccccc1 [2-{N'-[1-(4-Fluoro-phenyl)-meth-(E)-ylidene]-hydrazino}-5-phenyl-thiazol-4-one]
37 | < 4.28 | COC(=O)C1=C(C)NC(=O)C1=CNc1ccc(C(C)C)cc1 [methyl (4E)-2-methyl-5-oxidanylidene-4-[[(4-propan-2-ylphenyl)amino]methylidene]-1H-pyrrole-3-carboxylate]
38 | < 4.28 | Fc1ccc(Br)cc1C1CC(c2ccc(Br)cc2)=Nc2ncnn21 (stereo not drawn) [7-(5-bromo-2-fluorophenyl)-5-(4-bromophenyl)-1,7-dihydro-[1,2,4]triazolo[1,5-a]pyrimidine]
39 | < 4.28 | Cc1ccc(CSC(=Nc2ccc(F)cc2)C(C#N)C#N)cc1 [SMR000217751]
40 | 5.12 | Cc1ccc2oc(=O)c(CC(=O)c3sc(C)nc3C)nc2c1 [(3Z)-3-[2-(2,4-dimethyl-1,3-thiazol-5-yl)-2-oxidanylidene-ethylidene]-6-methyl-4H-1,4-benzoxazin-2-one]
41 | < 4.28 | Cc1cc(C)cc(NC(=O)c2ccc(-n3c(O)c4c(c3O)CCCC4)cc2)c1 [SMR000664971]
42 | < 4.28 | CC1C2=C(CC(C)(C)CC2=O)N=C2CC(C)(C)CC(=O)C21 (stereo not drawn) [3,3,6,6,9-pentamethyl-2,4,5,7,9,10-hexahydroacridine-1,8-dione]
43 | 4.94 | Cc1ccc(C(=O)Cc2nc3ccccc3oc2=O)cc1 [(3Z)-3-[2-(4-methylphenyl)-2-oxidanylidene-ethylidene]-4H-1,4-benzoxazin-2-one]
